Where two headings read alike, the source gives them in different places.
How the values were obtained:
dopamine transporter [1] = details: Bonnet and Constantin 1986; cited from earlier work
dopamine transporters [2] = molecular target: T1, dopamine transporters (Rattus norvegicus, UniProt P23977); test: affinity of IPT for dopamine transporters (document 11); assay type: binding; details: from document 11 values
Text: Therefore a specificity Kd(5-HT)/Kd(DA) of approximately 5 is obtained.
By way of comparison, the affinity of compound IPT for dopamine transporters described in document 11 corresponds to: […]

dopamine transporters [3] = molecular target: T1, dopamine transporters; details: document 11; cited from earlier work
serotonin transporters = details: document 11, page 320; cited from earlier work
dopamine transporter [4] = test: in vivo brain biodistribution in the rat with preinjection of GBR 12909 (specific inhibitor of the dopamine transporter); design: species or system rat (male Wistar); details: for fixation in the striatum prevented/inhibited by preinjection of GBR 12909: GBR 12909 5 mg/kg i.v. 30 min before, 2 hours after injection
Protocol: (§1) In this example, in vivo tests in the rat are used to study the affinity and specificity of the compound of example 1, hereinafter called PE21, for the dopamine transporter.
(§2) For this purpose 3 batches of male Wistar rats are used using 6 rats per batch. Batch number 1 is first given an intravenous injection of GBR 12909 (specific inhibitor of the dopamine transporter produced by RBI Bioblock) at a dose of 5 mg/kg, and 30 minutes later an injection of the compound of example 1 is given by intravenous route, at a dose of 8.10^-6 mg/kg.
(§3) Batch number 3, or the reference batch, only receives an intravenous injection of the compound of example 1.
(§4) 2 hours later, the animals are sacrificed and the doses of radioactivity in the cerebellum, striatum and frontal cortex tissues are determined.
(§5) The results obtained are given in FIG. 2 and are expressed as a % of the dose injected per gram of tissue.
(§6) In this figure, the columns in white relate to batch number 3 (reference), the shaded columns relate to batch number 1 which received GBR 12909 and the dotted columns relate to batch number 2 which received paroxetine.
(§7) In this example, the same operating mode as in example 14 is followed to conduct the same in vivo brain biodistribution study in the rat, but using the compound of the prior art β-CIT (3b-4-iodo[^125 I]phenyl)-tropan-2β-carboxylic acid methyl ester) instead of the compound of example 1.

serotonin transporter [5] = test: in vivo brain biodistribution in the rat with preinjection of paroxetine (specific inhibitor of the serotonin transporter); design: species or system rat (male Wistar); details: for specificity for the dopamine transporter compared with the serotonin transporter in vivo: rat brain
Protocol: as §1
Batch number 2 first receives an injection of paroxetine (specific inhibitor of the serotonin transporter made by Beecham laboratories) at a dose of 5 mg/kg, and 30 minutes later an injection of the compound of example 1 is given under the same conditions as for batch number 1.
as §3, §4, §5, §6, §7

dopamine transporter [6] = test: in vitro competition with [^3 H]-GBR 12935 on brain membrane preparations; assay type: binding; details: for Ki: read-out: Affinity: Ki (nM) Dopamine (DA); for Selectivity 5-HT/DA, Ki(5-HT):Ki(DA): [^3 H]paroxetine Ki over [^3 H]GBR Ki
Protocol: (§8) In this example, in vitro studies are conducted on brain membrane preparations.
(§9) These studies are competition studies between [^3 H]-GBR 12935 (dopamine transporter), [^3 H]-paroxetine (serotonin transporter), [^3 H]-nisoxetine (noradrenaline transporter) and the iodinated derivative of example 1 (PE21).
(§10) The inhibition constants Ki (nM) obtained with the compound of the invention PE21 in competition with the different ligands are given in table 4.
(§11) Med., 1996, 37, pages 1197-1202 for tests of the same type conducted with β-CIT and iodoaltropane described in WO-A-95/11901.

serotonin transporter [7] = molecular target: T2, serotonin transporter (Rattus norvegicus, UniProt P31652); test: biochemical; assay type: binding
T2 construct: in vitro studies are conducted on brain membrane preparations; from tissue; host or cells: brain membrane preparations
Protocol: as §8, §11

[8] = molecular target: T3, noradrenaline transporter (Rattus norvegicus, UniProt Q63380); test: in vitro competition with [^3 H]-nisoxetine on brain membrane preparations; assay type: binding
T3 construct: in vitro studies are conducted on brain membrane preparations; from tissue; host or cells: brain membrane preparations
Protocol: as §8, §9, §10, §11

dopamine transporter [9] = details: [^3 H]Win35428; document 10; read-out: Affinity: Ki (nM) Dopamine (DA); cited from earlier work
serotonin transporter [10] = molecular target: serotonin transporter (Macaca fascicularis, UniProt A7KAX8); details: read-out: Affinity: Ki (nM) Serotonin 5-HT; [^3 H]citalopram; document 10; cited from earlier work
[11] = tested on: dopamine transporter system; details: prior art compound; source not stated; cited from earlier work
[12] = biodistribution study in the rat, time course (cerebellum, striatum, frontal cortex); assay type: in vivo, rat (male Wistar); details: for tissue uptake at 0.5 h / tissue uptake at 1 h / tissue uptake at 2 h / tissue uptake at 4 h: rat, iv, 8e-06 mg/kg; for tissue uptake at 0.5 h: 0.5 h post-injection; for tissue uptake at 1 h: 1 h post-injection; for tissue uptake at 2 h: 2 h post-injection; for tissue uptake at 4 h: 4 h post-injection
Protocol: as §2, §3, §4, §5
In this example, a biodistribution study in the rat is also conducted for the compound of example 1 following the same operating mode as in example 14, but sacrificing the animals at 1/2 hour, 1 hour or 4 hours after injection.
In this table, the results obtained in example 14 are also given.

dopamine transporters [13] = molecular target: T1, dopamine transporters; test: in vitro affinity of [^125 I]PE21 for dopamine transporters; assay type: binding
Protocol: The affinity of compound [^125 I)PE21 for dopamine transporters was also determined in vitro, and the following value was obtained: […]

[14] = tested on: dopamine transporter system; test: kinetics study in vivo on the brain distribution in primates (SPECT, […]); design: species or system primates (Cynomologus female macaque); details: words
Protocol: In this example, a kinetics study in vivo is made on the brain distribution of the compound of example 1 in primates (Cynomologus female macaque, 2 kg, anaesthetized with ketamine, with data acquisition made every 12 minutes on […]).

dopaminergic cells = test: rat model of Parkinson's disease (unilateral 6-OHDA lesion of the nigrostriatal pathway), ex vivo autoradiography; assay type: in vivo, rat (Wistar); details: 2 hours after 3.7 MBq i.v.
Protocol: In this example, the compound of example 1 PE21 was tested in the rat using a model of Parkinson's disease obtained with a unilateral lesion of the nigrostriatal pathway. For this purpose Wistar rats were unilaterally perfused in the substantia nigra with 8 μg of 6-OHDA(6-hydroxy dopamine).
Three weeks later, they were given an intravenous 3.7 MBq injection of [^125 I]PE21.
Two hours afterwards, the rats were sacrificed and their brains collected. The latter were frozen and coronal sections 20 μm thick were taken which were exposed on β-max hyperfilm for six weeks.
The striatum/frontal cortex ratios were calculated after analysis of the films. On the lesion side, an average ratio of 0.86±0.10 was observed, while this ratio was 7.20±0.91 on the intact side.

dopamine transporter [15] = test: competition with [^3 H]Win35428 (document 10); assay type: binding; details: document 10 data
Text: as §11

[16] = cerebellum, read-out: Cerebellum
[17] = frontal cortex, read-out: Frontal cortex (% injected dose/g tissue)
[18] = striatum, read-out: Striatum (% injected dose/g tissue)

T1 sequence (P23977 whole entry): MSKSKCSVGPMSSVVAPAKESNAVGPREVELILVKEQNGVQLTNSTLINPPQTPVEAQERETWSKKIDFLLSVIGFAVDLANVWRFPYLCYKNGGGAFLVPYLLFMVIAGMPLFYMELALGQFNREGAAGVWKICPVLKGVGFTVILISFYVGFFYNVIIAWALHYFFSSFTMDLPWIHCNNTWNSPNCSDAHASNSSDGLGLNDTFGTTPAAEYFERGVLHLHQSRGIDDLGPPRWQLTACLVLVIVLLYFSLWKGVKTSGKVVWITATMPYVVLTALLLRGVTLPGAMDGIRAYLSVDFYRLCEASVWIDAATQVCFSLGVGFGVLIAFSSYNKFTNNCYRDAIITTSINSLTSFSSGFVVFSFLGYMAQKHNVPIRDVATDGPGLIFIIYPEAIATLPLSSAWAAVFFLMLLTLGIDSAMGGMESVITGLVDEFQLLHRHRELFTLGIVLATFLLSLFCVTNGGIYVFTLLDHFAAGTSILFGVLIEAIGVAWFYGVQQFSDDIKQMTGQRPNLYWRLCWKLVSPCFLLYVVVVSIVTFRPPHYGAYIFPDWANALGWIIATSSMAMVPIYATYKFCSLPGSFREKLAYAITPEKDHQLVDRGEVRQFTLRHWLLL
serotonin transporter (Macaca fascicularis, UniProt A7KAX8), sequence (A7KAX8 1-630): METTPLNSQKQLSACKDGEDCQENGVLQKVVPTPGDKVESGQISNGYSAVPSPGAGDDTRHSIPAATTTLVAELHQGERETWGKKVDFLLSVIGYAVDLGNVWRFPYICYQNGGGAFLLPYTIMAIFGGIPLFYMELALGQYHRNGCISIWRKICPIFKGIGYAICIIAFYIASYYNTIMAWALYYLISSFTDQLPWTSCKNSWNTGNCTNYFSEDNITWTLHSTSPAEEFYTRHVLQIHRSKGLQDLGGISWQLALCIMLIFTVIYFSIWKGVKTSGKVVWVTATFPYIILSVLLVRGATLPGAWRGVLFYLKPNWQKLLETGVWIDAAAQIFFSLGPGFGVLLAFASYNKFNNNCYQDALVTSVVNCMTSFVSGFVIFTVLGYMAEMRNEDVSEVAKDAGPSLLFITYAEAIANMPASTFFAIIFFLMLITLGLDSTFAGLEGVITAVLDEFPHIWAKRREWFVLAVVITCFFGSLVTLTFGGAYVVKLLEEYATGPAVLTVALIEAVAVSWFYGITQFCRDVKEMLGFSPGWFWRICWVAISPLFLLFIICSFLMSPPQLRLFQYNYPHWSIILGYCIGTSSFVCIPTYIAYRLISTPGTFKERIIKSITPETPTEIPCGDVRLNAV
T3 sequence (Q63380 1-617): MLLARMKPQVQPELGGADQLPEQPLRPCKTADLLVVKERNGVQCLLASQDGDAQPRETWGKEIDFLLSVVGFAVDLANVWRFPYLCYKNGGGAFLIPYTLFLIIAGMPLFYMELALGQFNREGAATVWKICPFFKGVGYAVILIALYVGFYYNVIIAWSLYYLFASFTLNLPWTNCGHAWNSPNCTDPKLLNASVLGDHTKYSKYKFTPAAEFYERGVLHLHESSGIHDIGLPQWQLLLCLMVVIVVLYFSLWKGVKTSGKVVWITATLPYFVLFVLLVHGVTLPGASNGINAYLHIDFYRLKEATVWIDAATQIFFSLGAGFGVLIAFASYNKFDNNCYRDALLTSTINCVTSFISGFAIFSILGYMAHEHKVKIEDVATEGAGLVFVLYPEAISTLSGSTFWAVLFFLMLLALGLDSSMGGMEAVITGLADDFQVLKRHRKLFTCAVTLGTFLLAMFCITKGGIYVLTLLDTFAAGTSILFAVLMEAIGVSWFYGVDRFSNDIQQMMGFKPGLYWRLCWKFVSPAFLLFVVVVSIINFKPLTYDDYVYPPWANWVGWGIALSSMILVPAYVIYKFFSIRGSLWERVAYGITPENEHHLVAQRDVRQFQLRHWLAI
T2 sequence (P31652 whole entry): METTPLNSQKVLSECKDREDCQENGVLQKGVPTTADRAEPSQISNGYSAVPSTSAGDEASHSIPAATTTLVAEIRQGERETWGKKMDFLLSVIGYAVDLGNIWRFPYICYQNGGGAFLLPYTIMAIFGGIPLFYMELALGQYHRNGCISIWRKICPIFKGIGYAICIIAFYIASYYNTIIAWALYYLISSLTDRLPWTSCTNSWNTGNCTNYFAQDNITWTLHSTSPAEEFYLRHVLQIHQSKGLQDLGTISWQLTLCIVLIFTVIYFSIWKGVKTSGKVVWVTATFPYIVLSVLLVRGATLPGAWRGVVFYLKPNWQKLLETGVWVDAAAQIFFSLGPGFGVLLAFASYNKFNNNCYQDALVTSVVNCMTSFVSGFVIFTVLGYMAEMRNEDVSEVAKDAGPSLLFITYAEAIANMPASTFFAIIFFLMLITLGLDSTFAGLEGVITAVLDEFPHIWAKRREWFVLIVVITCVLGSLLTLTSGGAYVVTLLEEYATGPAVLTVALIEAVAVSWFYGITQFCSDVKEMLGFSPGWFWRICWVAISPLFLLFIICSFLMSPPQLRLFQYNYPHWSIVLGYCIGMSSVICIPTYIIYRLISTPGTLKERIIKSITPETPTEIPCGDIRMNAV

Compound: C(=Cc1ccccc1)CN1CCN(CCOC(c2ccccc2)c2ccccc2)CC1 [GBR 12783]
- Kd (dopamine transporter [1]): 1.6 nM

Compound: COC(=O)[C@H]1[C@@H](c2ccc(Cl)cc2)C[C@@H]2CC[C@H]1N2CC=CI [IPT]
- specificity Kd(5-HT)/Kd(DA) (dopamine transporters [2]): approximately 5
- Kd (dopamine transporters [3]): 0.25 ± 0.02 nM
- Kd (serotonin transporters): 1.2 ± 0.02 nM

Compound: COC(=O)[C@H]1[C@@H](c2ccc(I)cc2)C[C@@H]2CC[C@H]1N2C [β-CIT, 2β-carbomethoxy-3β-(4' iodophenyl)-tropane, reference compound]
- non-specific fixation in the striatum determined after saturation with GBR 12909 (dopamine transporter [4]; 2 hours): ~70%
- fixation in the striatum prevented/inhibited by preinjection of GBR 12909 (dopamine transporter [4]): 31%
- fixation in the frontal cortex compared with the compound of the invention (serotonin transporter [5]; frontal cortex, rich in serotonin transporter sites, 2 hours, words): much higher than that of the compound of the invention
- inhibition of fixation in the frontal cortex through a preinjection of paroxetine (serotonin transporter [5]; frontal cortex, paroxetine 5 mg/kg i.v. 30 min before, 2 hours): 55%
- specificity for the dopamine transporter compared with the serotonin transporter in vivo (serotonin transporter [5]; words): binds to both these transporters
- Ki (dopamine transporter [6]; [^3 H]GBR): 27 ± 2 nM
- Selectivity 5-HT/DA, Ki(5-HT):Ki(DA) (dopamine transporter [6]): 1.11
- Ki (serotonin transporter [7]): 30 ± 2 nM
- Ki [8]: 80 ± 28 nM
- Ki (dopamine transporter [9]): 1.08 ± 0.6 nM
- Ki (serotonin transporter [10]): 2.53 ± 0.02 nM
- time at which a specific image of the central grey nuclei starts to be produced [11]: > 20 h

Compound: COC(=O)[C@H]1[C@@H](c2ccc(C)cc2)C[C@@H]2CC[C@H]1N2C/C=C/[125I] [Example 1, 2β-carbomethoxy-3β-(p-methylphenyl)-8-(3-[^125 I]iodoprop-2E-enyl)nortropane]
- non-specific fixation in the striatum determined after saturation with GBR 12909 (dopamine transporter [4]; 2 hours): approximately 25%
- specificity for the dopamine transporter in the striatum at early times (dopamine transporter [4]; 2 hours, words): very strong specificity for the dopamine transporter in the striatum
- fixation in the striatum prevented/inhibited by preinjection of GBR 12909 (dopamine transporter [4]): 74%
- specificity for the dopamine transporter compared with the serotonin transporter in vivo (serotonin transporter [5]; words): very strong specificity for the dopamine transporter compared with the serotonin transporter
- tissue uptake at 0.5 h [12, 16]: 0.1 %ID/g
- tissue uptake at 1 h [12, 16]: 0.055 %ID/g
- tissue uptake at 2 h [12, 16]: 0.038 %ID/g
- tissue uptake at 4 h [12, 16]: 0.021 %ID/g
- tissue uptake at 0.5 h [12, 17]: 0.124 %ID/g
- tissue uptake at 1 h [12, 17]: 0.07 %ID/g
- tissue uptake at 2 h [12, 17]: 0.039 %ID/g
- tissue uptake at 4 h [12, 17]: 0.018 %ID/g
- tissue uptake at 0.5 h [12, 18]: 1.06 %ID/g
- tissue uptake at 1 h [12, 18]: 0.537 %ID/g
- tissue uptake at 2 h [12, 18]: 0.272 %ID/g
- tissue uptake at 4 h [12, 18]: 0.074 %ID/g
- accumulation in the striatum ([12]; words): accumulates in preferential manner in the striatum
- specificity relative to IPT (dopamine transporter [6]; Ki(5-HT)/Ki(DA) of PE21 vs Kd(5-HT)/Kd(DA) of IPT): 5 times
- Ki ratio DA (PE21)/DA (β-CIT) (dopamine transporter [6]; [^3 H]GBR): 0.63
- Ki (dopamine transporter [6]; [^3 H]GBR): 17 ± 7 nM
- Selectivity 5-HT/DA, Ki(5-HT):Ki(DA) (dopamine transporter [6]): 29.4
- better affinity for dopamine transporter relative to iodoaltropane (dopamine transporter [6]; from Ki ratios to β-CIT): 10 times
- Ki (serotonin transporter [7]): 500 ± 80 nM
- Ki ([8]; [^3 H]nisoxetine, read-out: Affinity: Ki (nM) Nor-adrenaline): > 100 nM
- affinity relative to IPT (dopamine transporters [13]; Kd of PE21 vs Kd of IPT (document 11)): 2.5 times
- Kd (dopamine transporters [13]; [^125 I]PE21): 0.09 ± 0.01 nM
- binding at the central grey nuclei [14]: binds itself in specific manner at the central grey nuclei
- striatum/frontal cortex ratio, lesion side (dopaminergic cells; 6-OHDA lesion side): 0.86±0.10
- striatum/frontal cortex ratio, intact side (dopaminergic cells; intact side): 7.20±0.91

Compound: COC(=O)[C@H]1[C@@H](c2ccc(F)cc2)C[C@@H]2CC[C@H]1N2C/C=C/I [Iodoaltropane]
- Ki ratio DA (iodoaltropane)/DA (β-CIT) (dopamine transporter [15]): 6
- Ki (dopamine transporter [9]): 6.62 ± 0.78 nM
- Ki (serotonin transporter [10]): 182 ± 41.8 nM
